# In PMC11350846, “Synthesis of Second-Generation Analogs of Temporin-SHa Peptide Having Broad-Spectrum Antibacterial and Anticancer Effects” (Antibiotics, 2024):
# Where a SMILES comes first, the peptide text is derived from it. [ ]: non-standard residue; d: D form.
# Legend:
# B. subtilis (ATCC 6633) = conditions: 18-24 h
# Experimental: (§1) The peptides were assessed for their antibacterial activity by determining the minimum inhibitory concentration (MIC) using the two-fold serial dilution method following the National Committee of Clinical Laboratory Standards, as previously described. Gram-negative (Acinetobacter baumannii (DSM 30007), Escherichia coli (ATCC 8739), Enterobacter cloacae (DSM 30054), Helicobacter pylori (ATCC 43504), Klebsiella pneumoniae (DSM 26371), Pseudomonas aeruginosa (ATCC 9027)) and Gram-positive bacteria (Bacillus subtilis (ATCC 6633), Enterococcus faecalis (DSM 2570), Enterococcus faecium (DSM 20477), Staphylococcus aureus (ATCC 6538)) were used for the antibacterial activity assays. In brief, 3 mL of Mueller–Hinton (MH) broth was inoculated with single clusters of the various bacterial strains and incubated overnight at 37 °C with agitation at 200 rpm. The next day, the bacterial solution was diluted with sterile MH by 1/100 and further incubated at 37 °C and 200 rpm until the bacteria reached the log phase growth (OD600nm around 0.6). The bacterial suspension was then adjusted to a density of approximately 10^5 bacteria/mL, and 100 μL was added per well of 96-well microplates (Greiner BioOne, Les Ulis, France), followed by exposure to increasing concentrations of peptides (from 0 to 100 µM, 1:2 dilution). Plates were then incubated at 37 °C for 18-24 h under either aerobic (for A. baumannii, E. cloacae, E. coli, P. aeruginosa, B. subtilis, and S. aureus) or micro-aerobic conditions generated using GasPak units (for E. faecalis, E. faecium and, H. pylori). […] The optical density (OD) at 600nm was measured using a microplate reader (Biotek, Synergy Mx, Les Ulis, France) after the final incubation. All experiments were performed in triplicate (n = 3).
# E. faecium (DSM 20477) = conditions: E. faecium (DSM 20477), micro-aerobic, 18-24 h
# Experimental: as §1
# E. coli (ATCC 8739) = conditions: E. coli (ATCC 8739), 18-24 h
# Experimental: as §1
# [1] = test system: P. aeruginosa (ATCC 9027); conditions: P. aeruginosa (ATCC 9027), 18-24 h
# Experimental: as §1
# K. pneumonia (DSM 26371) = conditions: K. pneumonia (DSM 26371), 18-24 h
# Experimental: as §1
# E. cloacae (DSM 30054) = conditions: E. cloacae (DSM 30054), 18-24 h
# Experimental: as §1
# E. faecalis (DSM 2570) = conditions: E. faecalis (DSM 2570), micro-aerobic, 18-24 h
# Experimental: as §1
# S. aureus (ATCC 6538) = conditions: 18-24 h
# Experimental: as §1
# A. baumannii (DSM 30007) = conditions: A. baumannii (DSM 30007), 18-24 h
# Experimental: as §1
# H. pylori (ATCC 43504) = conditions: micro-aerobic, 18-24 h
# Experimental: as §1
# Skin Cancer (MNT-1) = type: cell-based, human; conditions: MNT-1, 48 h; read-out: 50% inhibitory concentrations (IC50), cell proliferation
# Experimental: (§2) The antiproliferative activity of the peptides was evaluated, as previously described using human cancer cell lines (A549 (lung), A2780 (ovary), HepG-2 (liver), MCF-7 (breast), MiaPaCa-2 (pancreas), MNT-1 (skin), and PC-3 (prostate)) and normal human lung fibroblasts (IMR-90) or epithelial cells (BEAS-2B). The cells were cultured in DMEM supplemented with 10% FBS, 1% L-glutamine, and 1% antibiotics at 37 °C in a 5% CO2 incubator. For the antiproliferative assay, cells were seeded in 96-well plates at approximately 3000 cells/well. Twenty-four hours later, cells were treated with increasing concentrations of peptides (1:2 serial dilution from 100 µM to 0 µM) for 48 h. After treatment, the number of viable cells was determined using a resazurin-based assay, and the fluorescence intensity was measured with a microplate reader (Ex 530 nm/Em 590 nm). The IC50 values of the peptides (i.e., the concentrations causing 50% inhibition of cell proliferation) were determined using GraphPad® Prism 7 software. The experiments were performed in triplicate (n = 3). The cytotoxicity of the peptides was also evaluated using confluent/no-dividing cells, as previously described. Briefly, human cells were seeded onto 96-well plates at 20,000 cells/well. When they reached 80–90% confluence (after 24–48 h), cells were treated with escalating concentrations of peptides. After 48h incubation, cell viability was measured using a resazurin assay and CC50 (i.e., the concentrations causing 50% inhibition of cell viability) and determined using GraphPad® Prism 7 software. The experiments were performed in triplicate (n = 3).
# Breast Cancer (MCF-7) = type: cell-based, human; conditions: MCF-7, 48 h; read-out: 50% inhibitory concentrations (IC50), cell proliferation
# Experimental: as §2
# [2] = test system: Normal Lung Fibroblast (IMR-90); type: cell-based, human; conditions: IMR-90 normal cells, 48 h; read-out: 50% inhibitory concentrations (IC50), cell proliferation
# Experimental: as §2
# [3] = test system: Normal Lung Epithelium (BEAS-2B); type: cell-based, human; conditions: BEAS-2B normal cells, 48 h; read-out: 50% inhibitory concentrations (IC50), cell proliferation
# Experimental: as §2
# Lung Cancer (A549) = type: cell-based, human; conditions: A549, 48 h; read-out: 50% inhibitory concentrations (IC50), cell proliferation
# Experimental: as §2
# Liver Cancer (HepG-2) = type: cell-based, human; conditions: HepG-2, 48 h; read-out: 50% inhibitory concentrations (IC50), cell proliferation
# Experimental: as §2
# Prostate Cancer (PC-3) = type: cell-based, human; conditions: PC-3, 48 h; read-out: 50% inhibitory concentrations (IC50), cell proliferation
# Experimental: as §2
# Ovarian Cancer (A2780) = type: cell-based, human; conditions: A2780, 48 h; read-out: 50% inhibitory concentrations (IC50), cell proliferation
# Experimental: as §2
# [4] = test system: Pancreatic Cancer (MiaPaCa-2); type: cell-based, human; conditions: MiaPaCa-2, 48 h; read-out: 50% inhibitory concentrations (IC50), cell proliferation
# Experimental: as §2
Compound,minimum inhibitory concentration (MIC) (B. subtilis (ATCC 6633)) [µM],minimum inhibitory concentration (MIC) (E. faecium (DSM 20477)) [µM],minimum inhibitory concentration (MIC) (E. coli (ATCC 8739)) [µM],minimum inhibitory concentration (MIC) [1] [µM],minimum inhibitory concentration (MIC) (K. pneumonia (DSM 26371)) [µM],minimum inhibitory concentration (MIC) (E. cloacae (DSM 30054)) [µM],minimum inhibitory concentration (MIC) (E. faecalis (DSM 2570)) [µM],minimum inhibitory concentration (MIC) (S. aureus (ATCC 6538)) [µM],minimum inhibitory concentration (MIC) (A. baumannii (DSM 30007)) [µM],minimum inhibitory concentration (MIC) (H. pylori (ATCC 43504)) [µM],IC50 (Skin Cancer (MNT-1)) [µM],IC50 (Breast Cancer (MCF-7)) [µM],IC50 [2] [µM],IC50 [3] [µM],IC50 (Lung Cancer (A549)) [µM],IC50 (Liver Cancer (HepG-2)) [µM],IC50 (Prostate Cancer (PC-3)) [µM],IC50 (Ovarian Cancer (A2780)) [µM],IC50 [4] [µM]
"CC[C@H](C)[C@H](NC(=O)CNC(=O)[C@H](CO)NC(=O)[C@H](CC(C)C)NC(=O)[C@@H](N)Cc1ccccc1)C(=O)N[C@H](C(=O)NCC(=O)N[C@@H](CCSC)C(=O)N[C@@H](CC(C)C)C(=O)NCC(=O)N[C@@H](CCCCN)C(=O)N[C@@H](CC(C)C)C(=O)N[C@@H](Cc1ccccc1)C(N)=O)C(C)C [Temporin-SHa (1), H-Phe^1-Leu^2-Ser^3-Gly^4-IIe^5-Val^6-Gly^7-Met^8-Leu^9-Gly^10-Lys^11-Leu^12-Phe^13-NH2, reference compound] (H-FLSGIVGMLGKLF-NH2)",1.56,6.25,50,50,50,50,12.5,3.12,6.25,3.12,> 100,26.9 ± 8.2,> 100,> 100,> 100,> 100,> 100,> 100,> 100
"CC[C@H](C)[C@H](NC(=O)CNC(=O)[C@H](CO)NC(=O)[C@H](CC(C)C)NC(=O)[C@@H](N)Cc1ccccc1)C(=O)N[C@H](C(=O)NCC(=O)N[C@@H](CCSC)C(=O)N[C@@H](CC(C)C)C(=O)N[C@H](C)C(=O)N[C@@H](CCCCN)C(=O)N[C@@H](CC(C)C)C(=O)N[C@@H](Cc1ccccc1)C(N)=O)C(C)C [[G10a]-SHa (2), H-Phe^1-Leu^2-Ser^3-Gly^4-IIe^5-Val^6-Gly^7-Met^8-Leu^9-D-Ala^10-Lys^11-Leu^12-Phe^13-NH2] (H-FLSGIVGML[dA]KLF-NH2)",3.12,>100,100,>100,100,>100,25,3.12,12.5,3.12,14 ± 0.8,18.3 ± 8,33 ± 3.1,22.6 ± 0.7,12.1 ± 0.4,37.2 ± 5,13.1 ± 2.4,13.4 ± 0.7,23.1 ± 4.3
